Reference: patent US12084458B2, “Substituted pyridines, pyridazines, and pyrimidines as TYK2 inhibitors” (Sudo Biosciences Limited, priority 2021, dated 2024)

How the values were obtained:
[1] = test system: HEK-Blue IL-23 cells (IL-23-stimulated STAT3 SEAP reporter; TYK2 JH2); assay: HEK-Blue IL-23 SEAP reporter assay for profiling TYK2 pseudokinase (JH2) inhibition; type: cell-based; conditions: 10 ng/mL human recombinant IL-23, SEAP reporter, read-out: IL23 (TYK2 inhibitory activity, IC50)
Method in brief: (§1)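 STAT-driven SEAP expression is measured with QUANTI-Blue. Cells receive test compound in serial dilution 60 min ahead of 10 ng/mL IL-23 (22-24 h) or 1 ng/mL IFNα (16-18 h).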

[2] = test system: HEK-Blue IFNα/β cells (IFNα-stimulated STAT1 SEAP reporter; TYK2 JH2); assay: HEK-Blue IFNα/β SEAP reporter assay for profiling TYK2 pseudokinase (JH2) inhibition; type: cell-based; conditions: Homo sapiens, HEK-Blue, 1 ng/mL human recombinant IFNα, read-out: IFNα (TYK2 inhibitory activity, IC50)
Method in brief: as §1

[3] = biological target: T1, TYK2 kinase domain (JH1) (Homo sapiens, UniProt P29597); assay: HTRF-based selectivity assay, TYK2 catalytic domain; type: biochemical; conditions: recombinant catalytic domain, ATP 20 μM
T1 construct: recombinant purified His or GST-tagged catalytic domain for each enzyme; made in house
T1 sequence (P29597 897-1176 limits assumed): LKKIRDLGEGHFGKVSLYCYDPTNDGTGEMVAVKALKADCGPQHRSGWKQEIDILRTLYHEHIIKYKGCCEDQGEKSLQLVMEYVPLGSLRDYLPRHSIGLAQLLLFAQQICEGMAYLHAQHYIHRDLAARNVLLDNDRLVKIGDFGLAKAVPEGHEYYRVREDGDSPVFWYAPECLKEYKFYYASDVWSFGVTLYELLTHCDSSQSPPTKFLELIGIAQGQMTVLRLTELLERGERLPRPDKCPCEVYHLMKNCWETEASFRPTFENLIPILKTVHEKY
Protocol: (§2) Example B-2: HTRF-Based Selectivity Assay
(§3) The ability of compounds to inhibit the activity of JAK1, JAK2, JAK3 and TYK2 is measured using a recombinant purified His or GST-tagged catalytic domain for each enzyme (JAK1, JAK2 and TYK2 are generated in-house; JAK3 was purchased from Carna biosciences, Cat #08-046) in an HTRF format biochemical assay. The reactions employs a commercial peptide substrate from Cisbio (Cat #62TK0PEC). The basic assay protocol is as follows: first, 2.5 μL of diluted compounds (4×) in DMSO are dispensed into a 384-well Optiplate. Next, 2.5 μL of enzyme (final concentrations for enzymes are: TYK2—700 ng/mL, JAK1—80.6 ng/mL, JAK2—2.1 ng/mL and JAK3—171.8 ng/mL) is added and incubated at RT for 5-20 min. Finally, 5 μl of mixture of 2× ATP [Final concentration 20 μM for TYK2, 21.43 μM for JAK1, 14.7 μM for JAK2 and 2.12 μM for JAK3]+2× Substrate [Final concentration 217 nM for TYK2, 454.7 nM for JAK1, 200 nM for JAK2 and 257.4 nM for JAK3] is added to 384 well Optiplate. Composition of Kinase assay buffer used in the assay is as follows: HEPES 50 mM, EGTA 1 mM, MgCl2 10 mM, DTT 2 mM, Tween-20 0.01% and water. Then the plates are shaken and then incubated at 26.5° C. for 60 min.

[4] = biological target: T2, JAK1 kinase domain (JH1) (Homo sapiens, UniProt P23458); assay: HTRF-based selectivity assay, JAK1 catalytic domain; type: biochemical; conditions: recombinant catalytic domain, ATP 21.43 μM
T2 construct: recombinant purified His or GST-tagged catalytic domain for each enzyme; made in house
Protocol: as §2, §3

[5] = biological target: T3, JAK2 kinase domain (JH1) (Homo sapiens, UniProt O60674); assay: HTRF-based selectivity assay, JAK2 catalytic domain; type: biochemical; conditions: recombinant catalytic domain, ATP 14.7 μM
T3 construct: recombinant purified His or GST-tagged catalytic domain for each enzyme; made in house
Protocol: as §2, §3

[6] = biological target: T4, JAK3 kinase domain (JH1) (Homo sapiens, UniProt P52333); assay: HTRF-based selectivity assay, JAK3 catalytic domain; type: biochemical; conditions: recombinant catalytic domain, ATP 2.12 μM
T4 construct: recombinant purified His or GST-tagged catalytic domain for each enzyme; purchased Carna biosciences 08-046
Protocol: as §2, §3

[7] = test system: HEK-Blue IL-2 reporter cells (IL-2-stimulated STAT5 SEAP reporter); assay: HEK-Blue IL-2 SEAP reporter assay for determining selectivity; type: cell-based; conditions: 4 ng/mL human recombinant IL-2
Method in brief: (§4)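 Cells were plated for 20-22 h, then pretreated with serially diluted compound for 60 min. They were stimulated for 24 h with 4 ng/mL human recombinant IL-2 or 50 ng/mL human recombinant IFNγ, and SEAP induction was read with QUANTI-Blue.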

[8] = test system: HEK-Blue IFNγ reporter cells (IFNγ-stimulated STAT1 SEAP reporter); assay: HEK-Blue IFNγ SEAP reporter assay for determining selectivity; type: cell-based; conditions: Homo sapiens, HEK-Blue, 50 ng/mL human recombinant IFNγ, read-out: IFN-γ (SEAP selectivity, IC50)
Method in brief: as §4

T4 sequence (P52333 822-1111 limits assumed): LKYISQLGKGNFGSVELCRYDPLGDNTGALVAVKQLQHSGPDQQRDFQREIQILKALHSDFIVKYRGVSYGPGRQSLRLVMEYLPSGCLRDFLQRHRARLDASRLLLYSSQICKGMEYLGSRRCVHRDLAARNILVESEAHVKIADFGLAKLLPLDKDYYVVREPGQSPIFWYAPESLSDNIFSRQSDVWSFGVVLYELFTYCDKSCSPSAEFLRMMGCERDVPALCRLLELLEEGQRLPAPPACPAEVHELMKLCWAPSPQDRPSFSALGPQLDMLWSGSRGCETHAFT
T2 sequence (P23458 875-1153 limits assumed): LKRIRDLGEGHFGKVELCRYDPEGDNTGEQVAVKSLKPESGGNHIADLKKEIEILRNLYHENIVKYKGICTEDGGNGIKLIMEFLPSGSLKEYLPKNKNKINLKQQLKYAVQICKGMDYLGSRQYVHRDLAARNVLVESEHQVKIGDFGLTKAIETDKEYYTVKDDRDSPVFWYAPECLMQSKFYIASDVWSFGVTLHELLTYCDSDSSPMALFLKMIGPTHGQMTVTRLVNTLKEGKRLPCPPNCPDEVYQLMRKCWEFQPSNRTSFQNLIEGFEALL
T3 sequence (O60674 849-1124 limits assumed): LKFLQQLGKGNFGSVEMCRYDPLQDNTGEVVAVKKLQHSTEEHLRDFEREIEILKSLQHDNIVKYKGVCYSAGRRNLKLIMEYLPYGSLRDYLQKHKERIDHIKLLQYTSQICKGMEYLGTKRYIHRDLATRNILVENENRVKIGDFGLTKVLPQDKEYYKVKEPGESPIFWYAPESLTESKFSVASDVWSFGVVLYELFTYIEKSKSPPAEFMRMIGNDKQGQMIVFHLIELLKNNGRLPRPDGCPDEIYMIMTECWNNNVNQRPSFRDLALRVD

Compound | IC50 [1] | IC50 [2] | IC50 [3] | IC50 [4] | IC50 [5] | IC50 [6] | IC50 [7] | IC50 [8]
CNC(=O)c1nnc(NC(=O)C2CC2)cc1Nc1cccc2c1N(C)CCn1cnnc1-2 [Compound 77, 6-(cyclopropanecarboxamido)-N-methyl-4-((7-methyl-6,7-dihydro-5H-benzo[f][1,2,4]triazolo[4,3-d][1,4]diazepin-8-yl)amino)pyridazine-3-carboxamide] | < 0.03 µM | 0.03 to 0.3 µM | > 1 µM | > 1 µM | 0.03 to 0.3 µM | 0.3 to 1 µM | > 1 µM | 0.3 to 1 µM
[2H]C([2H])([2H])NC(=O)c1cnc(Nc2ccc(F)cn2)cc1Nc1cccc2c1N(C)CCn1cnnc1-2 [Compound 79, 6-((5-fluoropyridin-2-yl)amino)-N-(methyl-d3)-4-((7-methyl-6,7-dihydro-5H-benzo[f][1,2,4]triazolo[4,3-d][1,4]diazepin-8-yl)amino)nicotinamide] | 0.03 to 0.3 µM | 0.03 to 0.3 µM | > 1 µM | > 1 µM | > 1 µM | > 1 µM | < 0.03 µM | < 0.03 µM
[2H]C([2H])([2H])NC(=O)c1cnc(Nc2cc(C)nc(C)n2)cc1Nc1cccc2c1N(C)CCn1cnnc1-2 [Compound 80, 6-((2,6-dimethylpyrimidin-4-yl)amino)-N-(methyl-d3)-4-((7-methyl-6,7-dihydro-5H-benzo[f][1,2,4]triazolo[4,3-d][1,4]diazepin-8-yl)amino)nicotinamide] | 0.03 to 0.3 µM | 0.03 to 0.3 µM | > 1 µM | > 1 µM | 0.03 to 0.3 µM | > 1 µM | > 1 µM | > 1 µM
[2H]C([2H])([2H])NC(=O)c1cnc(NC(=O)C2CC2)cc1Nc1cc(F)cc2c1N(C)Cc1nc(C)nn1-2 [Compound 83, 6-(cyclopropanecarboxamido)-4-((8-fluoro-2,5-dimethyl-4,5-dihydro-[1,2,4]triazolo[1,5-a]quinoxalin-6-yl)amino)-N-(methyl-d3)nicotinamide] | < 0.03 µM | 0.03 to 0.3 µM | > 1 µM | > 1 µM | > 1 µM | > 1 µM | > 1 µM | > 1 µM
[2H]C([2H])([2H])NC(=O)c1cnc(NC(=O)C2CC2)cc1Nc1nccc2c1N(C)Cc1nc(C)nn1-2 [Compound 84, 6-(cyclopropanecarboxamido)-4-((2,5-dimethyl-4,5-dihydropyrido[3,4-e][1,2,4]triazolo[1,5-a]pyrazin-6-yl)amino)-N-(methyl-d3)nicotinamide] | < 0.03 µM | 0.03 to 0.3 µM | > 1 µM | > 1 µM | > 1 µM | > 1 µM | > 1 µM | > 1 µM
[2H]C([2H])([2H])NC(=O)c1nnc(NC(=O)C2CC2)cc1Nc1nccc2c1N(C)Cc1nc(C)nn1-2 [Compound 85, 6-(cyclopropanecarboxamido)-4-((2,5-dimethyl-4,5-dihydropyrido[3,4-e][1,2,4]triazolo[1,5-a]pyrazin-6-yl)amino)-N-(methyl-d3)pyridazine-3-carboxamide] | < 0.03 µM | 0.03 to 0.3 µM | > 1 µM | > 1 µM | > 1 µM | > 1 µM | > 1 µM | 0.03 to 0.3 µM
